In patent US10292981B2, “Oxazoline and isoxazoline derivatives as CRAC modulators” (LUPIN LIMITED, priority 2010, dated 2019):

Assays:
Type in all cases: cell-based
[1] = test system: SOCE, Jurkat E6.1 cells; assay: SOCE inhibition (thapsigargin/calcium influx, FLIPR); conditions: Homo sapiens, thapsigargin, calcium chloride
Procedure: SOCE inhibition: Jurkat E6.1 cells were seeded at a density of 1-2×10^5 cells per well in calcium-4 dye prepared in calcium free HBSS (Sigma, USA). Test compounds from this invention were added to the cells at different concentrations. This was followed by the addition of thapsigargin (TG), a SERCA inhibitor, to empty the stores of calcium. Calcium chloride was added to the cells after 10-30 min to induce calcium influx and the fluorescence was measured for 10 min using the FLIPR-Tetra detection system. Fluorescence was also measured using a plate reader at 485 nm excitation and 520 nm emission (Synergy2, Biotek, USA) after 30-90 minutes of calcium addition. Fluorescence observed in cells treated with Thapsigargin and calcium chloride solution was considered 100% maximal signal and the reduced fluorescent signal observed in the presence of test compounds was expressed as percent inhibition of the maximal signal. The dose response data was analyzed using 4-parametric sigmoidal dose response (variable slope) curve-fit.

[2] = test system: NFAT-Luc reporter gene, HEK 293 cells; assay: NFAT transcriptional activity (NFAT-Luc reporter); conditions: Homo sapiens, HEK293, thapsigargin
Procedure: NFAT Transcriptional Activity: HEK 293 cells were stably transfected with a NFAT-Luc reporter gene. 30,000-80,000 cells were seeded per well. Test compounds from this invention were added to the cells at different concentrations. Thapsigargin (TG) was added after 10 mins and the cells were incubated for 4-8 h. NFAT transcriptional activity was measured using BrightGlo reagent (Promega USA). Luminescence observed in cells treated with thapsigargin was considered 100% maximal signal and the reduced fluorescent signal observed in the presence of test compounds was expressed as percent inhibition of the maximal signal. The data was analyzed using 4-parametric sigmoidal dose response (variable slope) curve-fit.

[3] = test system: IL-2 secretion, Jurkat T cells; assay: Inhibition of IL-2 secretion (PHA-stimulated Jurkat T cells, ELISA); conditions: Homo sapiens; Jurkat T cells stimulated with PHA, 20 to 24 hours
Procedure: The CRAC channel modulatory activity of the compounds were thus evaluated by measuring the secretion of IL-2 by antigen stimulated T-cells in vitro. Alternatively, such activity can also be evaluated by assay methods known to one skilled in the art.
Inhibition of IL-2 secretion: Jurkat T cells were seeded at a density of 0.5 to 1 million cells per well in RPMI medium. Test compounds from this invention were added to the cells at different concentrations. This was followed by the addition of PHA, a T cell mitogen after 10 minutes.
The cells were then incubated for 20 to 24 hours in a CO2 incubator at 37° C. After incubation with the compounds, cells were centrifuged, collected the supernatant and processed for ELISA to quantitate the amount of IL-2 secreted. A commercial ELISA kit (R&D Systems, Inc. Minneapolis, Minn., USA) was used to estimate the IL-2 concentrations. Amount of IL-2 secreted by cells stimulated with PHA was considered as a 100% maximal signal and the decrease in amount of IL-2 secreted by cells treated with the test compounds was expressed as percent inhibition of the maximal signal. The dose response data was analyzed using 4-parametric sigmoidal dose response (variable slope) curve-fit.

Compound	IC50 [1]	IC50 [3]	IC50 [2]
COc1ccc(C2=NOC(C)(C)C2=O)cc1-c1ccc(NC(=O)c2c(F)cccc2F)cc1 [Example 15, N-(5′-(5,5-dimethyl-4-oxo-4,5-dihydroisoxazol-3-yl)-2′-methoxy-[1,1′-biphenyl]-4-yl)-2,6-difluorobenzamide]	< 1000 nM		
Cc1c(C2=NOC(C)(C)C2=O)cccc1-c1ccc(NC(=O)c2c(F)cccc2F)cc1 [Example 29, N-(3′-(5,5-Dimethyl-4-oxo-4,5-dihydroisoxazol-3-yl)-2′-methyl-[1,1′-biphenyl]-4-yl)-2,6-difluorobenzamide]		< 100 nM	< 500 nM
COc1ccc(-c2nn(C)c(=O)o2)cc1-c1ccc(NC(=O)c2c(F)cccc2Cl)cc1 [Example 41, 2-Chloro-6-fluoro-N-(2′-methoxy-5′-(4-methyl-5-oxo-4,5-dihydro-1,3,4-oxadiazol-2-yl)[1,1′-biphenyl]-4-yl)benzamide]	< 1000 nM		
Cc1nnsc1C(=O)Nc1ccc(-c2cccc(-c3nn(C)c(=O)o3)c2C)cc1 [Example 50, 4-Methyl-N-(2′-methyl-3′-(4-methyl-5-oxo-4,5-dihydro-1,3,4-oxadiazol-2-yl)-[1,1′-biphenyl]-4-yl)-1,2,3-thiadiazole-5-carboxamide]			< 500 nM
C=CCOc1ccc(C2=NOC(C)(C)C2=O)cc1-c1ccc(NC(=O)c2c(F)cccc2F)cc1 [Example 132, N-(2′-(allyloxy)-5′-(5,5-dimethyl-4-oxo-4,5-dihydroisoxazol-3-yl)-[1,1′-biphenyl]-4-yl)-2,6-difluorobenzamide]		100 to 1000 nM	
CNc1ccc(C2=NOC(C)(C)C2=O)cc1-c1ccc(NC(=O)c2c(F)cccc2F)cc1 [Example 135, N-(5′-(5,5-Dimethyl-4-oxo-4,5-dihydroisoxazol-3-yl)-2′-(methylamino)-[1,1′-biphenyl]-4-yl)-2,6-difluorobenzamide]	< 1000 nM	< 100 nM	< 500 nM

More lines, main results first:

IC50 [1]	IC50 [3]	Compound	IC50 [2]
	100 to 1000 nM	CN(C)c1ccc(C2=NOC(C)(C)C2=O)cc1-c1ccc(NC(=O)c2c(F)cccc2F)cc1 [Example 136, N-(5′-(5,5-Dimethyl-4-oxo-4,5-dihydroisoxazol-3-yl)-2′-(dimethylamino)-[1,1′-biphenyl]-4-yl)-2,6-difluorobenzamide]	
	> 1000 nM	Cc1ccc(C2=NOC(CO)(CCO)C2)cc1-c1ccc(NC(=O)c2c(F)cccc2F)cc1 (centres unmarked) [Example 145, 2,6-Difluoro-N-(5′-(5-(2-hydroxyethyl)-5-(hydroxymethyl)-4,5-dihydroisoxazol-3-yl)-2′-methyl-[1,1′-biphenyl]-4-yl)benzamide]	
	< 100 nM	CCc1ccc(C2=NOC(C)(C)C2=O)cc1-c1ccc(C(=O)Nc2c(F)cccc2F)s1 [Example 157, N-(2,6-Difluorophenyl)-5-(5-(5,5-dimethyl-4-oxo-4,5-dihydroisoxazol-3-yl)-2-ethyl-phenyl)thiophene-2-carboxamide]	
	< 100 nM	CCc1ccc(C2=NOC(C)(C)C2=O)cc1-c1ccc(C(=O)Nc2ccncc2C)s1 [Example 158, 5-(5-(5,5-Dimethyl-4-oxo-4,5-dihydroisoxazol-3-yl)-2-ethylphenyl)-N-(3-methylpyridin-4-yl)thiophene-2-carboxamide]	
< 1000 nM	< 100 nM	COc1ccc(C2=NOC(C)(C)C2=O)cc1-c1ccc(C(=O)Nc2c(F)cccc2F)s1 [Example 160, N-(2,6-Difluorophenyl)-5-(5-(5,5-dimethyl-4-oxo-4,5-dihydroisoxazol-3-yl)-2-methoxy-phenyl)thiophene-2-carboxamide]	
	< 100 nM	CCc1ccc(-c2nn(C)c(=O)o2)cc1-c1ccc(C(=O)Nc2c(F)cccc2F)s1 [Example 171, N-(2,6-Difluorophenyl)-5-(2-ethyl-5-(4-methyl-5-oxo-4,5-dihydro-1,3,4-oxadiazol-2-yl)phenyl)thiophene-2-carboxamide]	
	< 100 nM	Cn1nc(-c2ccc(OC(F)F)c(-c3ccc(C(=O)Nc4c(F)cccc4F)s3)c2)oc1=O [Example 173, 5-(2-(Difluoromethoxy)-5-(4-methyl-5-oxo-4,5-dihydro-1,3,4-oxadiazol-2-yl)phenyl)-N-(2,6-difluorophenyl) thiophene-2-carboxamide]	
< 1000 nM	< 100 nM	Cc1c(-c2nn(C)c(=O)o2)cccc1-c1ccc(C(=O)Nc2c(F)cccc2F)s1 [Example 176, N-(2,6-Difluorophenyl)-5-(2-methyl-3-(4-methyl-5-oxo-4,5-dihydro-1,3,4-oxadiazol-2-yl)phenyl)thiophene-2-carboxamide]	< 500 nM
